Where two headings read alike, the source gives them in different places.
What was measured:
[1] = target: T1, Gluocorticoid receptor of thymus of rats (Rattus norvegicus, UniProt P06536); test: Glucocorticoid receptor binding (displacement of tritiated dexamethasone); details: for affinity for glucocorticoid receptors (in words): conclusion
T1 construct: The thymus were removed and homogenized at 0° C; from tissue; host or cells: rat thymus, 105,000 g supernatant (adrenalectomized male Sprague-Dawley rats)
T1 sequence (P06536 1-795): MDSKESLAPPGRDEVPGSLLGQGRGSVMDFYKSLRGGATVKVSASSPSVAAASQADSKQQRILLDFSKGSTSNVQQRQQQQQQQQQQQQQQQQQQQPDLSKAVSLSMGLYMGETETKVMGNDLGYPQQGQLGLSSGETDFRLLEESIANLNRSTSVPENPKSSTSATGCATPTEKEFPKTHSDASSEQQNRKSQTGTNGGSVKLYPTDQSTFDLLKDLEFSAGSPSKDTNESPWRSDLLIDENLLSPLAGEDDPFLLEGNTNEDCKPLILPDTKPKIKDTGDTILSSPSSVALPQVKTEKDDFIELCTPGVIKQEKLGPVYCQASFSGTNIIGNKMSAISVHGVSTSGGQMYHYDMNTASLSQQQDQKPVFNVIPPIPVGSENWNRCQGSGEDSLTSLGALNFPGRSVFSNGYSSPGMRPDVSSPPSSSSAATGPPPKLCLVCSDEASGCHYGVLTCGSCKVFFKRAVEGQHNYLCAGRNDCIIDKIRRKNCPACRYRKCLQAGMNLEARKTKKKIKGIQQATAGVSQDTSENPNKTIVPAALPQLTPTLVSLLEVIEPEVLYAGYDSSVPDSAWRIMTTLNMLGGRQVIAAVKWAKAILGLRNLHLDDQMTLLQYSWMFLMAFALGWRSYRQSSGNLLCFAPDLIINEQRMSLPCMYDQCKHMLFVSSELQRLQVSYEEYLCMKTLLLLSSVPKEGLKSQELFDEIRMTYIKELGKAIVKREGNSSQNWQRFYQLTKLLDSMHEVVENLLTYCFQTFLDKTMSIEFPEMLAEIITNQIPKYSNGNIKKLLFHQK
Protocol: D. Gluocorticoid receptor of thymus of rats
Male Sprague-Dawley EPOS rats weighing 160 to 200 g were surrenalectomized and the animals were killed 4 to 8 days later. The thymus were removed and homogenized at 0° C. in a buffered TS solution of 10 mM, Tris, 0.25M of Saccharose, 2 mM of dithiothreitol HCl for a pH of 7.4 using a polytetrafluoroethylene-glass Potter at a rate of 1 g of tissue per 10 ml of TS. […] The concentration of tied tritiated dexamethasone (B) was measured for each incubate by the adsorption on carbon-dextran technique.
The calculation of the relative affinity of […] (ARL) was identical for all of the above receptor tests. One traced the following two curves: the percentage of tied tritiated hormone B/T as a function of the logarithm of the cold hormone concentration and B/T as a function of the logarithm of the concentration of the cold test product. One determined the line of the equation. [formula]
The intersection of the I50 line and the curves permits one to determine the concentrations of the cold hormone of the reference (CH) and the cold test compound (CX) which inhibit by 50% the tieing of tritiated hormone with the receptor. The relative affinity of tieing (ARL) of the test product was determined by the equation: [formula]

[2] = target: T2, Androgen receptor of prostate of rats (Rattus norvegicus, UniProt P15207); test: Androgen receptor binding (displacement of tritiated product P); details: for affinity for androgen receptors (in words): conclusion
T2 construct: The prostates were removed, weighed and homogenized at 0° C; from tissue; host or cells: rat prostate, 105,000 g supernatant (castrated male Sprague-Dawley rats)
T2 sequence (P15207 1-902): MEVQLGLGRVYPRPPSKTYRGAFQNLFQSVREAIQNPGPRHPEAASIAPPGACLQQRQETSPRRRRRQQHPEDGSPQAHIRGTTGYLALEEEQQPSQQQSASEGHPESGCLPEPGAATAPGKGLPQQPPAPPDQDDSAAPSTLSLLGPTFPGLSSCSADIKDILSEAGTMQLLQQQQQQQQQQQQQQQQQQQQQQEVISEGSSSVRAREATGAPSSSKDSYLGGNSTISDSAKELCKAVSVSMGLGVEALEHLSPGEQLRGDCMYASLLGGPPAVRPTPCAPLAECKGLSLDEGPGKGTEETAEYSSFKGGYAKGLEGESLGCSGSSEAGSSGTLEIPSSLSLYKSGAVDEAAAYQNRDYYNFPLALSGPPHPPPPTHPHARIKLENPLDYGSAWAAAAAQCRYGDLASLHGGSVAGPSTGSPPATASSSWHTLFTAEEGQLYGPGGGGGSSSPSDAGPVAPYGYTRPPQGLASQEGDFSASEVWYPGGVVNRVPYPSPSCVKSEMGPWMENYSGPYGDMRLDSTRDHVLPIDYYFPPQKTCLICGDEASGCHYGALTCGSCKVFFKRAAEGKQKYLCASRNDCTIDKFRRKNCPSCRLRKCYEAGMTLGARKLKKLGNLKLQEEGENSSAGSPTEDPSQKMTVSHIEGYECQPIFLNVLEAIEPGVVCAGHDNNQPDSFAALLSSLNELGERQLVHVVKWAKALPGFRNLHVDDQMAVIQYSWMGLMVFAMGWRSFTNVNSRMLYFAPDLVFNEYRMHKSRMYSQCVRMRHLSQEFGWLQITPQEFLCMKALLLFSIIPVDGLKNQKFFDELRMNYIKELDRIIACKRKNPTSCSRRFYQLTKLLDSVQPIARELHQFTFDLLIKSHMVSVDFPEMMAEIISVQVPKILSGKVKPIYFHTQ
Outline: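 Male Sprague-Dawley EPOS rats of 160 to 200 g were castrated and killed 24 hours later. Prostates were homogenized at 0° C. in Tris 10 mM, 0.25M saccharose, HCl buffer at pH 7.4 (1 g tissue per 5 ml) and ultracentrifuged at 105,000 g. Cytosol was incubated with tritiated product P plus increasing cold competitor (0-1,000×10^-9 M). Bound tritium was measured by carbon-dextran adsorption. ARL was derived from the 50% inhibitory concentrations of reference and test compound.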

[3] = test system: thymocytes of surrenalectomized rats; test: Antiglucocorticoidal activity, incorporation of tritiated uridine in thymocytes; assay type: cell-based; details: for inhibition at 0.1 µM / inhibition at 0.01 µM / inhibition at 1 µM: Rattus norvegicus, Thymocyte; for inhibition at 0.1 µM: 5 × 10^-8 M dexamethasone + test product 10^-7 M; for inhibition at 0.01 µM: 5 × 10^-8 M dexamethasone + test product 10^-8 M; for opposition to the effect of dexamethasone on tritiated uridine incorporation (in words): with 5×10^-8 M dexamethasone
[4] = read-out: % inhibition of effect of Dexamethasone
[5] = second table, incubation 4 H at 0° C.
[6] = second table, incubation 24 H at 0° C.
[7] = second table, 5 × 10^-8 M dexamethasone + test product 10^-6 M, read-out: % of inhibition of effect of Dexamethasone
[8] = second table, read-out: % of inhibition of effect of Dexamethasone
[9] = second table, 5 × 10^-8 M dexamethasone + test product 10^-6 M

SMILES: CC#C[C@]1(O)CC[C@H]2[C@@H]3CCC4=CC(=O)[C@@H](C)CC4=C3[C@@H](c3ccc(N(C)C)cc3)C[C@@]21C [5 (2β), 2-methyl-11β-(4-dimethylaminophenyl)-17α-(prop-1-ynyl)-Δ^4,9-estradiene-17β-ol-3-one]
- relative affinity of tieing (ARL), Glucocorticoid ([1]; incubation 4 H at 0° C.): 224
- relative affinity of tieing (ARL), Glucocorticoid ([1]; incubation 24 H at 0° C.): 299
- relative affinity of tieing (ARL), Androgen ([2]; incubation 1/2H at 0° C.): 0,7
- relative affinity of tieing (ARL), Androgen ([2]; incubation 24 H at 0° C.): 0,5
- % inhibition of effect of Dexamethasone (symbol) ([3]; 5 × 10^-8 M dexamethasone + test product 10^-6 M): * (A dose of 10^-6 M inhibited the effect of dexamethasone totally)
- inhibition at 0.1 µM [3, 4]: 57%
- inhibition at 0.01 µM [3, 4]: 10%

SMILES: CC#C[C@]1(O)CC[C@H]2[C@@H]3CCC4=CC(=O)[C@H](C)CC4=C3[C@@H](c3ccc(N(C)C)cc3)C[C@@]21C [Example 5, 2α-methyl-11β-(4-dimethylaminophenyl)-17α-(prop-1-ynyl)-Δ^4,9-estradiene-17β-ol-3-one]
- affinity for glucocorticoid receptors (in words) [1]: very remarkable affinity
- affinity for androgen receptors (in words) [2]: slightly moderate affinity
- opposition to the effect of dexamethasone on tritiated uridine incorporation (in words) [3]: opposed this effect

SMILES: CC#C[C@]1(O)CC[C@H]2[C@@H]3CCC4=CC(=O)C(C#N)(C#N)CC4=C3[C@@H](c3ccc(N(C)C)cc3)C[C@@]21C [Example 9, 2,2-dicyano-11β-(4-dimethylaminophenyl)-17α-(prop-1-ynyl)-Δ^4,9-estradiene-17β-ol-3-one]
- relative affinity of tieing (ARL), Glucocorticoid ([1]; incubation 4 H at 0° C.): 14
- relative affinity of tieing (ARL), Glucocorticoid ([1]; incubation 24 H at 0° C.): 7
- relative affinity of tieing (ARL), Androgen ([2]; incubation 1/2H at 0° C.): < 0,1
- relative affinity of tieing (ARL), Androgen ([2]; incubation 24 H at 0° C.): < 0,1
- inhibition at 1 µM ([3]; 5 × 10^-8 M dexamethasone + test product 10^-6 M, read-out: % inhibition of effect of Dexamethasone): 2%
- inhibition at 0.1 µM [3, 4]: 1%
- inhibition at 0.01 µM [3, 4]: 3%

SMILES: C#C[C@@]1(O)CC[C@H]2[C@@H]3CCC4=CC(=O)CCC4=C3[C@@H](c3ccc(N(C)C)cc3)C[C@@]21C [Example 21, 11β-[4-(N,N-dimethylamino)-phenyl]-17β-ethynyl-Δ^4,9-estradiene-17α-ol-3-one]
- relative affinity of tieing (ARL), Glucocorticoid [1, 5]: 171
- relative affinity of tieing (ARL), Glucocorticoid [1, 6]: 118
- relative affinity of tieing (ARL), Androgen [2, 6]: 7,3
- inhibition at 1 µM [3, 7]: 83%
- inhibition at 0.1 µM [3, 8]: 15%
- inhibition at 0.01 µM [3, 8]: 5%
- opposition to the effect of dexamethasone on tritiated uridine incorporation (in words) [3]: opposed this effect

SMILES: C=C(C)C#C[C@]1(O)CC[C@H]2[C@@H]3CCC4=CC(=O)CCC4=C3[C@@H](c3ccc(N(C)C)cc3)C[C@@]21C [Example 23, 11β-[4-(N,N-dimethylamino)-phenyl]-23-methyl-19,21-dinor-17α-Δ^4,9,23-cholatriene-20-yn-17β-ol-3-one]
- relative affinity of tieing (ARL), Glucocorticoid [1, 5]: 212
- relative affinity of tieing (ARL), Glucocorticoid [1, 6]: 167
- relative affinity of tieing (ARL), Androgen [2, 6]: 14,7
- inhibition at 0.1 µM [3, 8]: 53%
- inhibition at 0.01 µM [3, 8]: 22%
- % of inhibition of effect of Dexamethasone (symbol) [3, 9]: * (A dose of 10^-6 M inhibited totally the effect of dexamethasone)
- opposition to the effect of dexamethasone on tritiated uridine incorporation (in words) [3]: opposed this effect

SMILES: CN(C)c1ccc([C@H]2C[C@@]3(C)[C@@H](CC[C@@]3(O)C#CCl)[C@@H]3CCC4=CC(=O)CCC4=C32)cc1 [Example 25, 11β-[4-(N,N-dimethylamino)-phenyl]-21-chloro-19-nor-17α-Δ^4,9-pregnadiene-20-yne-17β-ol-3-one]
- affinity for glucocorticoid receptors (in words) [1]: very remarkable affinity
- relative affinity of tieing (ARL), Glucocorticoid [1, 5]: 254
- relative affinity of tieing (ARL), Glucocorticoid [1, 6]: 292
- affinity for androgen receptors (in words) [2]: slightly moderate affinity
- relative affinity of tieing (ARL), Androgen [2, 6]: 32
- inhibition at 0.1 µM [3, 8]: 85%
- inhibition at 0.01 µM [3, 8]: 57%
- % of inhibition of effect of Dexamethasone (symbol) [3, 9]: * (A dose of 10^-6 M inhibited totally the effect of dexamethasone)
- opposition to the effect of dexamethasone on tritiated uridine incorporation (in words) [3]: opposed this effect

SMILES: C[C@]12C[C@H](c3ccc([N+](C)(C)[O-])cc3)C3=C4CCC(=O)C=C4CC[C@H]3[C@@H]1CC[C@@]2(O)C#CCl [Example 26, N-oxide of 11β-[4-(N,N-dimethylamino)-phenyl]-21-chloro-19-nor-17α-Δ^4,9-pregnadiene-20-yne-17β-ol-3-one]
- relative affinity of tieing (ARL), Glucocorticoid [1, 5]: 9
- relative affinity of tieing (ARL), Glucocorticoid [1, 6]: 14
- relative affinity of tieing (ARL), Androgen [2, 6]: 9,8
- inhibition at 1 µM [3, 7]: 75%
- inhibition at 0.1 µM [3, 8]: 34%
- inhibition at 0.01 µM [3, 8]: 14%
- opposition to the effect of dexamethasone on tritiated uridine incorporation (in words) [3]: opposed this effect

From patent publication US5043332A, “Novel 11β-substituted -19-nor-steriods” (priority 1981, dated 1991)
